According to patent US12599622B2, “Compounds to modulate intestinal absorption of nutrients” (The Brigham and Women's Hospital, Inc., priority 2013, dated 2026):

Assays:
[1] = mechanical stability of pastes (wet and dry weight over time); format: physicochemical
Experimental: To assess mechanical stability and physical properties of ASP, each 500 mg of ASP prepared from HCl solutions (0.1-0.3N) was added to 1 ml of simulated stomach acid (pH 1.0) in 37° C. At time points including 0, 10, 30, 60, 120 and 300 minutes, supernatant was removed to measure the wet weight. The remaining paste was lyophilized to measure the dry weight.

Sprague-Dawley (SD) rats = assay: Oral Glucose Tolerance Test (OGTT) after pre-gavage; format: in vivo, rat; details: 15-hour fasted rats, 500 mg/kg 3 times
Experimental: To evaluate the in vivo effect of ASP-PC on postprandial glucose absorption, Sprague-Dawley (SD) rats were pre-gavaged with the particles and tested using the Oral Glucose Tolerance Test (OGTT) method. […] For shorter fasting time, the rats were fasted for 5 hour (starting time: 7 am the same day of OGTT) and gavaged with saline or ASP-PC (starting time: 12 am the same day, dose: 500 mg/kg rat, 3 times, 1-hour apart for each gavage). Blood was collected from the tail vein to measure blood glucose level using a glucometer (OneTouch UltraSmart, LifeScan Inc., USA). Statistical significance was determined using a paired Student t-test. Results were considered significant when p≤0.05.
ASP-PC particles were gavaged in Sprague-Dawley (SD) rats fasted for 5 hour (FIGS. 11A, 11B, and 11C) or 15 hour (FIGS. 11D, 11E, andllF) (dose: 500 mg/kg rat, 3 times, 1-hour apart for each gavage).

[2] = followed by excretion via feces; cited from earlier work
[3] = dynamic viscosity by rheometer in simulated stomach acid; format: physicochemical; details: 1% w/v in simulated stomach acid
Experimental: Dynamic viscosity was measured using a 20-mm plate with 200-μm gaps (shear rate: 0.01-100 l/s in log scale, shear rate of 1 l/s was selected to compare viscosity of materials).

[4] = aluminum release / aluminum content by ICP-AES; format: physicochemical
Experimental: To confirm the pH dependent release of aluminum from sucralfate and ASP, aluminum-release was measured during ASP paste formation. […] The aluminum content in the supernatants was measured using inductively coupled plasma atomic emission spectroscopy (ICP-AES, ULTIMA-2, Horiba).
To measure additional aluminum release from aluminum-pre-released ASP, formed pastes were washed with DDW, and 500 mg was added to 10 ml of simulated stomach acid. The samples were vortexed for 5 minutes and incubated for 2 hours. The aluminum content in the supernatant solutions was measured using ICP-AES.

[5] = integrative permeation test: glucose barrier on mucin-coated membrane in Franz cell; details: paste in simulated stomach acid pH 1.0 on mucin-coated membrane; normalized to membrane without material (0% blocked)
Experimental: Specifically, a cellulose nitrate membrane (pore size: 0.2 μm, Whatman, Germany) was incubated in a 3% w/v porcine stomach mucin (Sigma-Aldrich, USA) solution in Hank's balanced salt solution (HBSS) and gently shaken for 2 hours at room temperature. The membrane was washed with distilled deionized water (DDW, pH 7) to remove the excess mucin solution. The mucin-coated membranes were used within 1 hour following preparation. To measure the thickness of the mucin layer, the mucin-coated membrane was lyophilized and imaged using scanning electron microscope (SEM) and the thickness of randomly selected positions was examined (average mucin layer thickness: ˜100 μm).
The dry weight was calculated from dry weights of material-attached membranes and mucin-coated membranes. […] The permeation test was performed in triplicate. The glucose concentration was measured using high performance liquid chromatography (HPLC, Agilent, USA) with an analytical C18 column (Zorbax Eclipse XDB-C18, Agilent). The flow rate was 1 ml/minute, the eluent was DDW, and the wavelength of UV detector was 195 nm.
The barrier properties of the resultant particles were measured by adding 0.9 ml of particle dispersion and 0.1 ml of 10× simulated stomach acid.

total mass liberated upon exposure to stomach acid [1]: ~10%
viscosity [3]: very high viscosity
Substance: sucrose octasulfate-aluminum complex [sucralfate]
peak glucose values at all other time points versus saline (Sprague-Dawley (SD) rats): similar
5-minutes glucose level following OGTT (Sprague-Dawley (SD) rats; p<0.003 vs saline): 97.8 ± 7.3 mg/dL
duration in the GI tract [2]: 2 to 6 h
percentage of total aluminum released ([4]; in 0.1N HCl): ~9.4%
percentage of total aluminum released ([4]; in 0.3N HCl): ~44.8%
original aluminum content released ([4]; reaction with simulated stomach acid (pH 1.0)): ~9.4%
blocking of glucose (barrier property to glucose permeation) [5]: 62%
